Assays:
Assay in all cases: MIC of amoxycillin in combination with the compound (synergy)
Assay type in all cases: cell-based
Settings in all cases: amoxycillin alone
[1] = tested on: Escherichia coli JT39
[2] = tested on: Staph. aureus Russell
[3] = tested on: Kleb. aerogenes E70

MIC µg/ml amoxycillin [1]: 2000 µg/mL
MIC µg/ml amoxycillin [2]: 500 µg/mL
MIC µg/ml amoxycillin [3]: 1000 µg/mL
Structure (SMILES): CC1(C)S[C@@H]2[C@H](NC(=O)[C@H](N)c3ccc(O)cc3)C(=O)N2[C@H]1C(=O)O [Amoxycillin]
